Results as given in US4774320A, “Synthetic peptide with human interleukin 1 activity” (Sclavo S.p.A., priority 1986, dated 1988).

Experiments:
[1] = test system: T cells from the spleen of C3H/HeJ mice; assay: Induction of IL-2 production in ConA-activated spleen T cells; supernatants tested for growth of IL-2-dependent CTLL-2 cells; assay type: cell-based; conditions: supernatants of splenocytes incubated 48 hours with ConA and substance, dilution 1/10
Method: For the purpose of establishing whether the activity of costimulation of the murine thymocytes on the part of the synthetic peptide is due, as in the case of human IL-1, to the induction of the production of IL-2, the following test was carried out.
T cells from the spleen of C3H/HeJ mice, separated on nylon wool as reported by Julius, M. H. et al., Eur. J. Immunol. 3, 645 (1973), are incubated in duplicate for 48 hours at 37° C. in 1 ml of RPMI 1640 medium (GIBCO), supplemented by N-2-hydroxyethylpiperazine N'-2-ethanesulphonic acid (HEPES), L-glutamine, gentamycin, 10% bovine foetal serum and 2-mercaptoethanol (2.5×10^-5 M), in the presence of graduated concentrations (840-420-210 μg/ml) of the synthetic peptide 163-171 and of purified human IL-1B as standard, with the addition of concanavalin A (ConA) as costimulant.
At the end of the period of incubation, the supernatant is separated from the culture and a determination is made of its capacity to promote the growth of CTLL-2 cells dependent upon IL-2 according to the method reported by Gillis S. M. et al. (J. Immunol. 120, 2027 (1978)).
The mitogenic activity of IL-2 on CTLL-2 cells is measured, either by determining the number of cells after 24 hours of culturing or by means of the assessment of the incorporation of tritiated thymidine in the cells. […]

[2] = test system: CTLL-2 cells; assay: Substances tested directly on IL-2-dependent CTLL cells (no splenocyte supernatant; upper part of Table 2); assay type: cell-based; conditions: dilution 1/10

With “Human IL-1β: purified human IL-1B standard (Genzyme Boston Mass.)” the “IL-2 (mU/ml)” value [1] was 38 mU/ml, the “Stimulation index + SE of CTLL cells” value [1] was 15.27 ± 0.88 and the “IL-2 (mU/ml)” value [2] was 1 mU/ml. The “Stimulation index + SE of CTLL cells” value [2] was 0.93 ± 0.02.
